Experimental findings from ChEMBL document CHEMBL1157232, “Wortmannilactones A-D, 22-membered triene macrolides from Talaromyces wortmannii” (J Nat Prod, 2006) are described below.

Values after ≈ are worked out from the molar mass of the structure shown.

The test system of one test is B16-F10. The test can be described thus: Cytotoxicity against mouse B16-F10 cells. The test is classed as functional, cell-based.
The next test relates to Human alphaherpesvirus 1. Nature of the test: Antiviral activity against Herpes simplex virus 1. The test is classed as functional, organism-based.
A further test concerns Human alphaherpesvirus 2. The test can be described thus: Antiviral activity against Herpes simplex virus 2. The format is functional, organism-based.
Another test relates to A549. The test can be described thus: Cytotoxicity against human A549 cells. The format is functional, cell-based.
Test [1] in a line: Cytotoxicity against human HCT115 cells. The test is classed as functional, cell-based.
For a further test, the system named is K562. Nature of the test: Cytotoxicity against human K562 cells. The format is functional, cell-based.
The next test relates to MDA-MB-231. Nature of the test: Cytotoxicity against human MDA-MB-231 cells. The format is functional, cell-based.
Test [2] can be described thus: Cytotoxicity against human HCT5 cells. The format is functional, cell-based.

Consider `C[C@@H]1CCC/C=C/C=C/[C@H](O)C[C@@H](O)C/C=C\C=C\[C@@H](O)C/C=C/C=C\C(=O)O1` [MACROLACTIN A], for which the IC50 in the test with B16-F10 worked out at 3.5 µg/mL (≈ 8.69 µM); in the test on Human alphaherpesvirus 1, 5 µg/mL (≈ 12.4 µM); in the test with Human alphaherpesvirus 2, 8.3 µg/mL (≈ 20.6 µM).
For the molecule `CC(O)CC1C/C=C/C=C/C=C/C(O)CC(O)CC(O)C/C=C/C=C/C=C/C(=O)O1` (stereo not drawn) [WORTMANNILACTONE A], the half-maximal inhibitory concentration (IC50) with A549 stood at 76.5 µM; in test [1], 35 µM; in the test with K562, 65.7 µM; with MDA-MB-231, 108 µM; in test [2] it was 28.7 µM.
As to `COC1/C=C/C=C/C=C/CC(CC(C)O)OC(=O)/C=C/C=C/C=C/CC(O)CC(O)C1` (stereo not drawn) [WORTMANNILACTONE B], the IC50 in the test on A549 came to 104 µM; in test [1], 41.7 µM; with K562 it was 116 µM; with MDA-MB-231 it was 95.6 µM; in test [2], 32.4 µM.
Taken in the same sequence, the figures for `CC(O)CC1CC(O)/C=C/C=C/C=C/CC(O)CC(O)C/C=C/C=C/C=C/C(=O)O1` (stereo not drawn) [WORTMANNILACTONE C] were 118 µM, 52.4 µM, 130 µM, 120 µM and 56.3 µM.
Taken in the same sequence, the figures for `COC1/C=C/C=C/C=C/CC(O)CC(O)C/C=C/C=C/C=C/C(=O)OC(CC(C)O)C1` (stereo not drawn) [WORTMANNILACTONE D] were 116 µM, 44.7 µM, 123 µM, 111 µM and 46.3 µM.
